Test results from US20100278855A1, “NEUROPROTECTIVE GANODERMA COMPOSITIONS AND METHODS OF USE” (priority 2009, published 2010).

How the values were obtained:
[1] = test system: MES 23.5 and microglia co-cultures; assay: High-affinity [3H] dopamine uptake assay, MES 23.5 and microglia co-cultures; assay type: cell-based, rat; settings: no Ganoderma
Excerpt: (§1) The dopaminergic cell line MES 23.5 was a gift from professor Wei-dong Le, Department of Neurology, Baylor College of Medicine, Houston. The MES 23.5 cells were derived from somatic cell fusion of rat embryonic mesencephalic cells with murine N18TG2 neuroblastoma cells (Crawford, G. D. et al., 1992, J. Neurosci., 12:3392-3398). MES 23.5 cells display many properties of developing neurons of the SN zona compacta and offer several advantages for such initial studies, including greater homogeneity than primary cultures and susceptibility to both free-radical-mediated cytotoxicity and calcium-dependent cell death. […]
(§2) Cells in each well were washed with 1 ml of Krebs-Ringer buffer (16 mM NaH2PO4, 16 mM Na2HPO4, 119 mM NaCl, 4.7 mM KCl, 1.8 mM CaCl2, 1.2 mM MgSO4, 1.3 mM EDTA, and 5.6 mM glucose; pH 7.4). […] After mixing the lysate with 3 ml of scintillation fluid overnight, radioactivity was determined with Perkin Elmer 1450LSC Luminescence Counter (Waltham, USA.). Specific uptake was determined by subtracting the nonspecific counts for the total activity.
(§3) To assess inflammation mediated neurotoxicy, dopaminergic MES23.5 neurons were exposed to 100 μM MPP^+ or 0.25 μg/ml LPS in the absence or presence of microglia co-culture for 24 hr, and neurotoxicity was assessed using [3H] […]

MES 23.5 cells = assay: High-affinity [3H] dopamine uptake assay, MES 23.5 neurons alone; assay type: cell-based, rat/murine; settings: 100 μM MPP+ 24 hr, MES23.5 neurons alone, no Ganoderma
Excerpt: as §1, §2, §3

superoxide = assay: Superoxide assay (Assay Kit-WST) in microglia cultures; assay type: cell-based, rat; settings: stimulus alone: LPS 0.25 μg/ml or MPP+-treated cell membrane fraction 150 μg/ml
Experimental: (§4) Microglia were isolated and purified from brains of 12-24 hours old Wistar rats supplied by Laboratory Animal Center (Le, W. D. et al., 2001, J. Neurosci., 21:8447-8455). Briefly, after brains were dissected and the meninges removed, the tissues were minced and digested with trypsin (0.25% trypsin-EDTA in 0.1M phosphate buffer) for 20 minutes at 37° C., triturated with a fire-polished Pasteur pipette and filtered through a […] nylon cell strainer. After centrifugation for 5 minutes at 800 rpm, the tissues were suspended into DMEM containing 10% fetal bovine serum (FBS), and seeded in 75 cm^2 flasks at a density of 5×10^5/ml cells per flask.
(§5) Two weeks after the seeding, the flasks were shaken at 180 rpm for 4 hours, and the floating cells were collected and centrifuged for 5 minutes at 800 rpm. The cells were resuspended and plated to 96-well plates for further experimental treatment.
(§6) To study the interaction of reactive microglia with MES 23.5 cells, microglia and MES 23.5 cells were co-cultured in 24-well culture plates. Briefly, the purified microglia were plated at a density of 1×10^4/well 1 day before addition of MES 23.5 cells at a ratio of 2:1 (MES 23.5 to microglia). […]
(§7) Samples were prepared similar to NO samples and the production of these factors were determined using rat TNF-α kit, rat IL-1β ELISA kit and superoxide Assay Kit-WST according to the manufacturer's instructions. […]

nitric oxide (NO) = assay: NO assay (Griess reagent) in microglia culture medium; assay type: cell-based, rat; settings: stimulus alone: LPS 0.25 μg/ml or MPP+-treated cell membrane fraction 150 μg/ml
Experimental: as §4
Two weeks after the seeding, the flasks were shaken at 180 rpm for 4 hours, and the floating cells were collected and centrifuged for 5 minutes at 800 rpm. The cells were resuspended and plated to 96-well plates for further experimental treatment. […]
The production of NO was quantified by measuring the released NO metabolites (nitrates and nitrites) with Griess reagent (Mayer, A. M., 1998, Medicina (B Aires), 58:377-385). […] The medium was incubated with the same volume of Griess reagent at room temperature for 10 minutes before measuring absorbance at 540 nm in a LP-400 ELISA reader (Diagnostics Pasteur, Marne-la-Coquette, France) with appropriate standards. […]

TNF-α = TNF-α ELISA in microglia culture medium; assay type: cell-based, rat; settings: stimulus alone: LPS 0.25 μg/ml or MPP+-treated cell membrane fraction 150 μg/ml
Experimental: as §4, §5, §6, §7

IL-1β = IL-1β ELISA in microglia culture medium; assay type: cell-based, rat; settings: stimulus alone: LPS 0.25 μg/ml or MPP+-treated cell membrane fraction 150 μg/ml
Experimental: as §4, §5, §6, §7

TNF-α mRNA = assay: Real-time PCR of TNF-α mRNA in primary microglial cells; assay type: cell-based, rat; settings: stimulus alone vs control cells
Excerpt: (§8) Total RNA was extracted from primary microglial cells using RNAprep Kit according to the manufacturer's specifications. RNA was primed with random 9 mers and converted into cDNA by reverse transcription (RT) using AMV reverse transcriptase by following the manufacturer's recommended protocol (Schell, J. B. et al., 2007, J. Neuroimmunol., 189:75-87; Liu, B. et al., 2000, J. Pharmacol. Exp. Ther., 293:607-617). The resulting cDNA was then subjected to real-time PCR with SYBR Premix Ex Taq containing a final concentrations of 1×SYBR Green (Molecular Probes) and 0.2 μM of the primer set of interest in a […] reaction. The PCR mixture was run in the DNA engine Opticon 2 (MJ research; Waltham, Mass.). After an initial 10-second 95° C. denaturation step, the reaction was run through 35 cycles at 95° C. for 5 s, 60° C. for 30 s, and 80° C. for 1 s. Melting curve analysis was executed to ensure the resulting products from the reaction had equivalent and appropriate melting temperatures. The specific primers used are listed in Table 1 (Schell, J. B. et al., 2007, J. Neuroimmunol., 189:75-87). The quantification of target transcripts was based on a calibration curve. The “housekeeping” gene β-actin was targeted for an internal control gene. The test gene data were normalized by corresponding β-actin data.

IL-1β mRNA = assay: Real-time PCR of IL-1β mRNA in primary microglial cells; assay type: cell-based, rat; settings: stimulus alone vs control cells
Excerpt: as §8

Molecule	decrease in [3H] DA uptake ([1]; 100 μM MPP+ 24 hr, MES23.5 and microglia co-cultures)	decrease in [3H] DA uptake (MES 23.5 cells)	increase of superoxide level (superoxide)	increase of NO level (nitric oxide (NO))	increase of TNF-α level (TNF-α)	reduction of [3H] DA uptake ([1]; 0.25 LPS 24 hr, neuron-microglia co-cultures)	increase of IL-1β level (IL-1β)	TNF-α mRNA expression (TNF-α mRNA)	IL-1β mRNA expression (IL-1β mRNA)
C[n+]1ccc(-c2ccccc2)cc1 [MPP^+]	about 74%	about 66%	–	–	–	–	–	–	–
lipopolysaccharide [LPS]	–	–	5-11 fold	5-11 fold	6-11 fold	approximately 50%	6-11 fold	significantly increased	significantly increased
